This is an account of results in patent US8809350B2, “Purine and pyrimidine CDK inhibitors and their use for the treatment of autoimmune diseases” (priority 2004, dated 2014).

In one test the test system is HCT116 cells. The following applies: cited from earlier work.
The target in a further test is CDK7/cyclin H (Homo sapiens, UniProt P50613). The test can be described thus: CDK 7 and 9 assay (CTD peptide substrate). The following applies: in-house kinase assays; read-out: Average IC50 CDK7H. Type of test: biochemical. The procedure:
(§1) Kinase activity was investigated by measuring the incorporation of radioactive phosphate from ATP into appropriate polypeptide substrates. Recombinant protein kinases and kinase complexes were produced or obtained commercially. Assays were performed using 96-well plates and appropriate assay buffers (typically 25 mM β-glycerophosphate, 20 mM MOPS, 5 mM EGTA, 1 mM DTT, 1 mM […], pH 7.4), into which were added 2-4 μg of active enzyme with appropriate substrates. The reactions were initiated by addition of Mg/ATP mix (15 mM MgCl2+100 μM ATP with 30-50 kBq per well of [γ-^32P]-ATP) and mixtures incubated as required at 30° C. Reactions were stopped on ice, followed by filtration through p81 filterplates or GF/C filterplates (Whatman Polyfiltronics, Kent, UK). After washing 3 times with 75 mM aq orthophosphoric acid, plates were dried, scintillant added and incorporated radioactivity measured in a scintillation counter (TopCount, Packard Instruments, Pangbourne, Berks, UK). Compounds for kinase assay were made up as 10 mM stocks in DMSO and diluted into 10% DMSO in assay buffer.
(§2) The reaction was stopped by placing the plate on ice for 2 min. Avidin (50 μg) was added to each well, and the plate was incubated at room temp for 30 min. The samples were transferred to a 96-well P81 filter plate, and washed (4×200 μL per well) with 75 mM phosphoric acid. Microscint 40 scintillation liquid (50 μL) was added to each well, and the amount of ^32P incorporation for each sample was measured using a Packard Topcount microplate scintillation counter.

The target of the next test is CDK1B (Homo sapiens, UniProt P06493). Briefly: In-house kinase assay (32P incorporation). The following applies: in-house kinase assays. Type of test: biochemical. The procedure: as §1
Chain of CDK1B (P06493 whole entry): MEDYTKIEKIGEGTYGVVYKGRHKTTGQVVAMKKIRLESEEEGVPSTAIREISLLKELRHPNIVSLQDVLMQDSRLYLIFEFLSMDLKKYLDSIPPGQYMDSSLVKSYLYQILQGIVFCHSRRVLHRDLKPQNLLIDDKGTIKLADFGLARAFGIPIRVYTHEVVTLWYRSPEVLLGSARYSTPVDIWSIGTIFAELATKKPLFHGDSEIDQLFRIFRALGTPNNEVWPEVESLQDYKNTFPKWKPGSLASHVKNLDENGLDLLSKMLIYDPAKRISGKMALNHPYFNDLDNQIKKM
Chain of CDK1B (P14635 whole entry partner): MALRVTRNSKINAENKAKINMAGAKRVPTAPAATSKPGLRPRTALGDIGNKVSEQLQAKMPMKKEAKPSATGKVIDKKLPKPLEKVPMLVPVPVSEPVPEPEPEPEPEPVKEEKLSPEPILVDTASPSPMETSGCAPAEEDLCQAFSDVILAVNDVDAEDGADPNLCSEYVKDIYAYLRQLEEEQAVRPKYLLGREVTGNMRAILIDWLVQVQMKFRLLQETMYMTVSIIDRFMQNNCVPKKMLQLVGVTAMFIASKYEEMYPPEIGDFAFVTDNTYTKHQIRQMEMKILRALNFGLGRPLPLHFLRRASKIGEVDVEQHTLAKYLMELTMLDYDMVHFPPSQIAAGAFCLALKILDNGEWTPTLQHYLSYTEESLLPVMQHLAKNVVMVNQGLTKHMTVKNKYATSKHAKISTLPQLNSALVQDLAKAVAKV
The target in the next test is CDK6D3 (Homo sapiens, UniProt Q00534). Briefly: In-house kinase assay (32P incorporation). Type of test: biochemical. The following applies: in-house kinase assays. The procedure: as §1
Chain of CDK6D3 (Q00534 whole entry): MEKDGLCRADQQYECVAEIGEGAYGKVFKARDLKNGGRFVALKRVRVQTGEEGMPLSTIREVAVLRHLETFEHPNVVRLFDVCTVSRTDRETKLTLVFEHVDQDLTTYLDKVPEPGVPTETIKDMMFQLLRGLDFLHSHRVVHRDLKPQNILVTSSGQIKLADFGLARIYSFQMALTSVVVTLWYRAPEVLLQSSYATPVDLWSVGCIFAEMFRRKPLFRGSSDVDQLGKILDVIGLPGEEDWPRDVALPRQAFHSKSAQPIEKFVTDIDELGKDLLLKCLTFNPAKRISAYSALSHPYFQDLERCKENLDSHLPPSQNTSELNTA
Chain of CDK6D3 (P30281 whole entry partner): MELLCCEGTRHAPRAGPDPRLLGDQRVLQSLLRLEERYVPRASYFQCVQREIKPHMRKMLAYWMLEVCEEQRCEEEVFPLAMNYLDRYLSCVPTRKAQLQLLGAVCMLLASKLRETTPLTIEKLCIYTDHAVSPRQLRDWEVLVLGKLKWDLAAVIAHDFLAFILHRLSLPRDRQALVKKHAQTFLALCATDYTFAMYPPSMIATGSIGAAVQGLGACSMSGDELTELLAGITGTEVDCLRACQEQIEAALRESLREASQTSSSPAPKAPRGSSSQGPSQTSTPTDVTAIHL
A further test deals with CDK4D1 (Homo sapiens, UniProt P11802). Briefly: In-house kinase assay (32P incorporation). Type of test: biochemical. The following applies: in-house kinase assays. The procedure: as §1
Chain of CDK4D1 (P11802 whole entry): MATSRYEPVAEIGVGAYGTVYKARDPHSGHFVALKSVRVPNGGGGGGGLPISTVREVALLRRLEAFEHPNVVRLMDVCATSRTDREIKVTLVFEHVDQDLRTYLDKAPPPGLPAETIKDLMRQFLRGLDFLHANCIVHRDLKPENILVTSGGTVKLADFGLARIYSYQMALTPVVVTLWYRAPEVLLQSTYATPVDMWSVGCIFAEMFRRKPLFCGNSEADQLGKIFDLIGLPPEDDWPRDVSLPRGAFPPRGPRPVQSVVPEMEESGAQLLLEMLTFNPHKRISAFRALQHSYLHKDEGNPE
Chain of CDK4D1 (P24385 whole entry partner): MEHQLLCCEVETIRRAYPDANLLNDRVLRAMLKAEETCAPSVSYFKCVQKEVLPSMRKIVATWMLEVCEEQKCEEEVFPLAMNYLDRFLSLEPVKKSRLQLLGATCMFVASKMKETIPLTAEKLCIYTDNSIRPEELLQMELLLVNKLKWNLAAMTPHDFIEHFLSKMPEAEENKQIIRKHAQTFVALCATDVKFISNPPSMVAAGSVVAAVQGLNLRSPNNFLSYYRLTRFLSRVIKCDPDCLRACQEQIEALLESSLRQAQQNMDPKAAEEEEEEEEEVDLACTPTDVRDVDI
A further test has as its target T1, AurA (Homo sapiens, UniProt O14965).
T1 sequence (O14965 1-403): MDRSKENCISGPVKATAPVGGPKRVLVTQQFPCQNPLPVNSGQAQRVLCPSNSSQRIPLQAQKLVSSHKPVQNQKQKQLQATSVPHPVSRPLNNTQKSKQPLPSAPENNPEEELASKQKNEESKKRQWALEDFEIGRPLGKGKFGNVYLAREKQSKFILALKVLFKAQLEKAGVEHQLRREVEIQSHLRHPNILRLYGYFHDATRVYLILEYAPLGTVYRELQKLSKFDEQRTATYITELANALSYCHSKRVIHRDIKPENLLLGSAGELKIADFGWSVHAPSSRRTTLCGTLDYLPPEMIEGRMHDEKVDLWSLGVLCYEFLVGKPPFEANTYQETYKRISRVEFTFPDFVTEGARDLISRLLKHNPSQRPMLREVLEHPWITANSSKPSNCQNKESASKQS
Briefly: In-house kinase assay (32P incorporation). The conditions noted are these: in-house kinase assays. It is filed as biochemical. The method, then:
as §1

For a further test, the target named is AurB (Homo sapiens, UniProt Q96GD4). The test can be described thus: In-house kinase assay (32P incorporation). Type of test: biochemical. The following applies: in-house kinase assays. The method, then: as §1
Chain of AurB (Q96GD4 whole entry): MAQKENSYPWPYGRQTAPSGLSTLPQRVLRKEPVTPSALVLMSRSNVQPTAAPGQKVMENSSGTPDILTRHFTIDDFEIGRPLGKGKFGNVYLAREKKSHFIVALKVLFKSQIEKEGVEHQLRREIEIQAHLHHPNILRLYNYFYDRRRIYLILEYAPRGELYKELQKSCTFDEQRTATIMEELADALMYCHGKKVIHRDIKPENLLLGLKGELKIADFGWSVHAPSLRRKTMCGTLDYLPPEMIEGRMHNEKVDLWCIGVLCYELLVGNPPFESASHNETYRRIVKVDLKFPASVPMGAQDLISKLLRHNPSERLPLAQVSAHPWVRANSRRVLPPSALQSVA
Another test has as its target CDK2A (Homo sapiens, UniProt P24941). Briefly: In-house kinase assay (32P incorporation). The conditions noted are these: in-house kinase assays. Type of test: biochemical. The procedure:
as §1

A further test has as its target CDK2E (Homo sapiens, UniProt P24941). The test can be described thus: In-house kinase assay (32P incorporation). Type of test: biochemical. The conditions noted are these: in-house kinase assays. The procedure:
as §1

The next test has as its system stimulated PBMCs. Briefly: T cell proliferation assay (BrdU ELISA in stimulated PBMCs). It is filed as cell-based. The method, then:
PBMCs were seeded in 96 well plates at 1×10^5 cells/well, in 50 μL per well culture medium. […] All stimulants and compounds were made up to 4× final concentration in tissue culture medium and 25 μL of each drug and stimulant was then added to wells, for a final volume of 100 μL/well. For unstimulated controls, 25 μL tissue culture medium was added to wells instead of stimulant and for untreated cells, 25 μL/well tissue culture medium containing equal volume DMSO (0.1% final) was added. Three adjacent wells were treated for each stimulation/treatment condition and the mean value calculated for analysis.
In addition, PBMCs were stimulated with ConA (Concanavalin A, Sigma C5275) at concentrations ranging from 0.5 μg/mL to 100 μg/mL to identify its stimulatory effect and optimal concentration.
Cells were labelled with BrdU for two hours prior to harvesting. Plates were then centrifuged for 10 minutes at 300 g (RT), supernatant removed from wells by pipetting and cells dried for 1 hour at 60° C. FixDenat solution was added to plates (100 μL/well) and incubated for 30 minutes, then flicked to remove and anti-BrdU-POD solution added to plates (100 μL/well) and incubated for 90 minutes.
A general note: Dividing cells build labelled thymidine or BrdU into new DNA.

Another test has as its target CDK9/cyclin T1 (Homo sapiens, UniProt P50750). The test can be described thus: CDK 7 and 9 assay (CTD peptide substrate). It is filed as biochemical. The following applies: in-house kinase assays; read-out: Average IC50 CDK9T1. The method, then:
as §1, §2

Another test relates to tumour cell panels. The test can be described thus: In-house 72 hour cytotoxicity assays on tumour cell panels. Type of test: cell-based.
Setting [1] is: rounded IC50 value used for ease of calculation in PBMC assays, read-out: IC50 Used.
[2] abbreviates: Example 3, PHA stimulated PBMCs, compounds at IC50 to 4×IC50, 48 hours after stimulation.
The mark [3] stands for this setting: Example 3, PMA/I stimulated PBMCs, all concentrations.
Setting [4] is: Example 4, PHA or ConA stimulated PBMCs, 0.25×IC50 to 4×IC50, 48 and 72 hours.

pIC50: −log10 of the molar value. “Also recorded” adds a separate entry of the source. Like-named read-outs stand apart in the source and are kept apart here.

Chain of CDK9/cyclin T1 (P50750 whole entry): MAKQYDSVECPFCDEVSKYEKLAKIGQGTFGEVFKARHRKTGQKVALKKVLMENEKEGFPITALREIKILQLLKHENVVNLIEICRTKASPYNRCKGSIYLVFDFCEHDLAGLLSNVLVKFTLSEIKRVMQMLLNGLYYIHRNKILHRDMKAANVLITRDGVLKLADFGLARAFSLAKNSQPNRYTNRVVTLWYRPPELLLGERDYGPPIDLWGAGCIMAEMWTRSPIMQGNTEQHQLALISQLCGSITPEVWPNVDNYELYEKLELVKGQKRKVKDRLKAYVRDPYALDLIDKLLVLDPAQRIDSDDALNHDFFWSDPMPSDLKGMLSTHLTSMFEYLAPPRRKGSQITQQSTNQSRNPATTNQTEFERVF
Chain of CDK9/cyclin T1 (O60563 whole entry partner): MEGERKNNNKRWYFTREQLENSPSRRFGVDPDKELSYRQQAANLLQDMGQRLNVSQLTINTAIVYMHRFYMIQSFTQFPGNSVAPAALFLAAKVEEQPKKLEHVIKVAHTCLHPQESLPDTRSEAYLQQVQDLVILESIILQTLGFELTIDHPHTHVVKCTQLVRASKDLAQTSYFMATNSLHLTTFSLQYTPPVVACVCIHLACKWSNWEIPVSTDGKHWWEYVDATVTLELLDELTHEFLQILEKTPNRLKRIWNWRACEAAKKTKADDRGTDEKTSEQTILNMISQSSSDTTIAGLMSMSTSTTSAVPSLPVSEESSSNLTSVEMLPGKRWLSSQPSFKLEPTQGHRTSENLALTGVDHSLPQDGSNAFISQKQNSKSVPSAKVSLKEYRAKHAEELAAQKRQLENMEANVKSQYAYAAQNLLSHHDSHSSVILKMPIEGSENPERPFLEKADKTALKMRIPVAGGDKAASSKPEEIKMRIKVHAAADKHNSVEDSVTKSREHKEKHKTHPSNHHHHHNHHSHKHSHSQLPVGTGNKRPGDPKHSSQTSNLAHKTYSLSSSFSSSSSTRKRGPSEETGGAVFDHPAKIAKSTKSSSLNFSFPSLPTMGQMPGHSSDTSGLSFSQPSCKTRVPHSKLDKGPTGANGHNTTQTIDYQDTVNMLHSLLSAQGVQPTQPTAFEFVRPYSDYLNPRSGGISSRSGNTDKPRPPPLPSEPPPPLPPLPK
Chain of CDK7/cyclin H (P50613 whole entry): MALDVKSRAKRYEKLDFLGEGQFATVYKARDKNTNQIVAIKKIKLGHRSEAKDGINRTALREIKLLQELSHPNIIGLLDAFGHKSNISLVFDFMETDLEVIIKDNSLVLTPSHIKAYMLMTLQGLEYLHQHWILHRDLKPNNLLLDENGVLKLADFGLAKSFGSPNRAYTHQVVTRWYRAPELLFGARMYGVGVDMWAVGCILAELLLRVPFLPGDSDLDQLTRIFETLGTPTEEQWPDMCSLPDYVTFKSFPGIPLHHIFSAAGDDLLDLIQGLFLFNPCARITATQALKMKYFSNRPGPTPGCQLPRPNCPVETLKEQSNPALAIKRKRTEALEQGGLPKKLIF
Chain of CDK7/cyclin H (P51946 whole entry partner): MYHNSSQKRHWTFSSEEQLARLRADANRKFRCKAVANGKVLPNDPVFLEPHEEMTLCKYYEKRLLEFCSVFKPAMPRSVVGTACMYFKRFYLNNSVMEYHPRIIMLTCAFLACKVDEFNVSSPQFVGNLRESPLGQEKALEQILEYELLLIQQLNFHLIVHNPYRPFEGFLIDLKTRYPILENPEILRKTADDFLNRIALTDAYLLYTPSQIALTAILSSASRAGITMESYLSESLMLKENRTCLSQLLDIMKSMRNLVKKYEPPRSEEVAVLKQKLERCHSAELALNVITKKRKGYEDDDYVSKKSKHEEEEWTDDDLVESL

With `Cn1cnc2c(NCc3ccccc3)nc(NCCO)nc21` [Compound 3], the pIC50 (commonly the negative decadic logarithm of the IC50, by convention in mol/L) in the test with HCT116 cells (published for HCT116 cells, Raynaud et al. 2005, no in-house data, read-out: IC50 Average) was 4.25; with HCT116 cells (rounded from published HCT116 IC50, used in PBMC assays, read-out: IC50 Used), 4.30; on CDK7/cyclin H, less than 4.70.

In the case of `Cc1c(-c2ccnc(Nc3ccc(N4CCNCC4)cc3)n2)sc(=O)n1C` [Compound 7], the negative-log IC50 (pIC50) is 5.31 against CDK1B; 5.20 against CDK6D3; 5.12 on CDK4D1; less than 5.00 on AurA; less than 5.00 against AurB; 6.65 against CDK2A. Also, the pIC50 on CDK2E is 7.15; at CDK7/cyclin H, 6.01; on CDK9/cyclin T1 it was 6.71; in the test with tumour cell panels (72 h, read-out: IC50 Average), 5.27; with tumour cell panels (setting [1]), 5.30. The “Concentration reaching complete inhibition of proliferation activity” value in the test on stimulated PBMCs (Example 4, PHA or ConA stimulated PBMCs) is on record as 0.25 ×IC50.

Regarding `CCNc1nc(C)c(-c2ccnc(Nc3ccc(CNC(C)=O)cc3)n2)s1` [Compound 9], the pIC50 was 5.70 on CDK1B; 6.96 against CDK6D3; 6.93 against CDK4D1; 7.03 against AurA; 7.68 on AurB; 5.78 on CDK2A. Also, the pIC50 on CDK2E was 6.69; at CDK7/cyclin H, 6.83; on CDK9/cyclin T1, 7.01; with tumour cell panels (72 h, read-out: IC50 Average), 6.60; with tumour cell panels (setting [1]) it was 6.60. Also, the BrdU incorporation result is recorded as “clearly concentration dependent” in the test with stimulated PBMCs (setting [2]), “higher than in PHA stimulated cells” in the test with stimulated PBMCs (setting [3]) and “concentration dependency was clearly seen; also recorded: needed at higher concentrations than the other compounds” in the test on stimulated PBMCs (setting [4]).

Take `CCNc1nc(C)c(-c2ccnc(Nc3ccc(S(C)(=O)=O)cc3)n2)s1` [Compound 10]: the pIC50 on CDK1B is 5.83; on CDK6D3 it was 5.19; against CDK4D1, 5.29; at AurA it was less than 5.00; at AurB, less than 4.00; at CDK2A, 6.94. For the same compound, the pIC50 on CDK2E was 7.89; at CDK7/cyclin H it was 6.34; at CDK9/cyclin T1, 7.09; in the test on tumour cell panels (72 h, read-out: IC50 Average), 6.12; with tumour cell panels (setting [1]), 6.00. Further, the BrdU incorporation entry in the test on stimulated PBMCs (setting [2]) was “clearly concentration dependent”; in the test on stimulated PBMCs (setting [3]) it was “higher than in PHA stimulated cells”; in the test with stimulated PBMCs (setting [4]), “concentration dependency was clearly seen; also recorded: needed at higher concentrations than the other compounds”.
